# Test results as given in ChEMBL document CHEMBL1149952, “Inhibition of human leukocyte elastase (HLE) by novel bicyclic -lactams” (Bioorg Med Chem Lett, 1993).
# Experiments:
# Neutrophil elastase = target: T1, Neutrophil elastase (Homo sapiens, UniProt P08246); assay: Inhibitory activity against human leukocyte elastase (HLE) was determined
# T1 sequence (P08246 whole entry): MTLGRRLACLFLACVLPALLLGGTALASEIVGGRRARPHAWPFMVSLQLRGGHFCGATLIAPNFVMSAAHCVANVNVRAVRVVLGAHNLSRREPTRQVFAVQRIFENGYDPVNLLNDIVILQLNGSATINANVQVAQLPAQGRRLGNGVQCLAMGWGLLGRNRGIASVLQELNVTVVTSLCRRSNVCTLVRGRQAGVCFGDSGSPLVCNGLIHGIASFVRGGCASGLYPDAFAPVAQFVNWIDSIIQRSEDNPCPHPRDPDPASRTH
# [1] = target: T2, Neutrophil elastase (Homo sapiens) (UniProt P08246)
# T2 sequence (whole entry): T1 sequence (P08246 whole entry)
# Description: Rate constant for the compound was determined against human leukocyte elastase (HLE)
# [2] = target: T2, Neutrophil elastase (Homo sapiens); remark: listed apart in the source
# Description: Rate constant for the compound was determined (k2/ki) against human leukocyte elastase (HLE)
# [3] = target: T2, Neutrophil elastase (Homo sapiens); remark: listed apart in the source
# Description: Alkaline hydrolysis constant for the compound was determined against human leukocyte elastase (HLE)
Structure (SMILES),Ki (Neutrophil elastase) [µM],k off [1] [s⁻¹],k on [2] [M⁻¹ s⁻¹],kOH [3] [M⁻¹ s⁻¹]
C[C@@H](O)[C@H]1C(=O)N2C/C(=C/C(=O)OC(C)(C)C)S[C@H]12,4,–,–,–
C[C@@H](OC(=O)Cc1ccccc1)[C@H]1C(=O)N2S/C(=C/C(=O)OC(C)(C)C)S[C@H]12,0.4,0.0004,970,0.04
C[C@@H](O)[C@H]1C(=O)N2S/C(=C\C(=O)OC(C)(C)C)S[C@H]12,12,0.002,150,3
C[C@@H](O)[C@@H]1C(=O)N2S/C(=C/C(=O)OC(C)(C)C)S[C@@H]12,> 100,–,–,10.3
C[C@@H](O)[C@H]1C(=O)N2S/C(=C/C(=O)OC(C)(C)C)C[C@H]12,3.2,–,–,–
C[C@@H](O)[C@H]1C(=O)N2S/C(=C/C(=O)OC(C)(C)C)S[C@H]12,1.5,0.0014,1000,12
C[C@@H](O)[C@H]1C(=O)N2C/C(=C/C(=O)OC(C)(C)C)C[C@H]12,> 100,–,–,–
